Experimental data from patent US20220380319A1 (Bial - R&D Investments, S.A., priority 2019, published 2022).
Converted amounts (≈) assume the structure as drawn.

Assays:
[1] = Compound solubility in water
acid ceramidase = target: T1, acid ceramidase (Homo sapiens, UniProt Q13510); test: Acid ceramidase inhibition, biochemical fluorescent assay with cell lysates overexpressing acid ceramidase, substrate Rbm14-12; conditions: substrate Rbm14-12 6.3 μM, pH 4.5, 1 hr preincubation at RT
T1 construct: Cell lysates overexpressing acid ceramidase were used as the enzyme source; expressed in transfected cells
T1 sequence (Q13510 22-395): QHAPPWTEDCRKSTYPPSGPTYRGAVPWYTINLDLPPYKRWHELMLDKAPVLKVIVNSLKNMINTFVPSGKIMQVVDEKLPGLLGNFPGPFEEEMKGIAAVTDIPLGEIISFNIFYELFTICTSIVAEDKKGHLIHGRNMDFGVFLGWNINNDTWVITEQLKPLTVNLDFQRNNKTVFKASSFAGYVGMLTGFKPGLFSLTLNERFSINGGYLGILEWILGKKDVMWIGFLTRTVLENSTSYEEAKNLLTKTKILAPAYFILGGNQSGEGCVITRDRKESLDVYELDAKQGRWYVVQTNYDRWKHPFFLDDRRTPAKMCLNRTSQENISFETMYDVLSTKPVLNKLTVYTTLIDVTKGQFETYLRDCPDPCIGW
Experimental: The ability of exemplary compounds to inhibit acid ceramidase was measured.
Cell lysates overexpressing acid ceramidase were used as the enzyme source for compound potency determination in a biochemical fluorescent assay. Briefly, compounds were preincubated with 10 μg protein of cell lysates in a dose-response manner for 1 hr at RT in the assay buffer containing 25 mM NaAC and 100 mM NaCl, pH 4.5. The reaction was initiated by the addition of substrate Rbm14-12 at a final concentration of 6.3 μM. The reaction was run at RT for 1 hr before it was stopped by the addition of the stopping buffer containing 20% methanol (v/v), 1 mg/ml NaIO4, 0.1 M glycine, pH 10.6. The samples were incubated with the stopping buffer at RT for 1 hr to allow the fluorescent product to be formed. Finally, the plate was read with SpectraMax i3 plate reader (Molecular Devices) at ex360 nm and em446 nm. Data were collected and used to determine the IC50 values of compounds by curve fitting to the four-parameter inhibition equation.

Row | SMILES | solubility [1] | IC50 (acid ceramidase)
1 | COc1ccc2c(c1)ncn2C(=O)NCCc1ccccc1 [Example 25a, 5-Methoxy-N-phenethyl-1H-benzo[d]imidazole-1-carboxamide] | 2.6 µg/mL (≈ 8.8 µM) | < 200 nM
2 | COc1ccc2ncn(C(=O)NCCc3ccccc3)c2c1 [Example 25b, 6-methoxy-N-phenethyl-1H-benzo[d]imidazole-1-carboxamide] | 15 µg/mL (≈ 50.8 µM) | < 200 nM
3 | O=C(NCCc1ccccc1)n1cnc2cc(C(F)(F)F)ccc21 [Example 26a, N-Phenethyl-5-(trifluoromethyl)-1H-benzo[d]imidazole-1-carboxamide] | 0.5 µg/mL (≈ 1.5 µM) | < 200 nM
4 | O=C(NCCc1ccccc1)n1cnc2ccc(C(F)(F)F)cc21 [Example 26b, N-phenethyl-6-(trifluoromethyl)-1H-benzo[d]imidazole-1-carboxamide] | 2.6 µg/mL (≈ 7.8 µM) | < 200 nM
5 | COc1cccc2c1ncn2C(=O)NCCc1ccccc1 [Example 27, 4-Methoxy-N-phenethyl-1H-benzo[d]imidazole-1-carboxamide] | 7.8 µg/mL (≈ 26.4 µM) | < 200 nM
6 | COc1nc2cc(N3CCOCC3)ccc2n1C(=O)NCCc1ccccc1 [Example 29b, 2-methoxy-5-morpholino-N-phenethyl-1H-benzo[d]imidazole-1-carboxamide] | 3.6 µg/mL (≈ 9.46 µM) | 200 to 1000 nM
7 | COc1nc2cc(-c3cccnc3)ccc2n1C(=O)NCCc1ccccc1 [Example 30a, 2-Methoxy-N-phenethyl-5-(pyridin-3-yl)-1H-benzo[d]imidazole-1-carboxamide] | 1.6 µg/mL (≈ 4.3 µM) | < 200 nM
8 | COc1nc2ccc(-c3cccnc3)cc2n1C(=O)NCCc1ccccc1 [Example 30b, 2-methoxy-N-phenethyl-6-(pyridin-3-yl)-1H-benzo[d]imidazole-1-carboxamide] | 3.9 µg/mL (≈ 10.5 µM) | < 200 nM
9 | COc1nc2ccc(-c3cncnc3)cc2n1C(=O)NCCc1ccccc1 [Example 31a, 2-Methoxy-N-phenethyl-6-(pyrimidin-5-yl)-1H-benzo[d]imidazole-1-carboxamide] | 7.1 µg/mL (≈ 19 µM) | < 200 nM
10 | COc1nc2cc(-c3cncnc3)ccc2n1C(=O)NCCc1ccccc1 [Example 31b, 2-methoxy-N-phenethyl-5-(pyrimidin-5-yl)-1H-benzo[d]imidazole-1-carboxamide] | 8.6 µg/mL (≈ 23 µM) | < 200 nM
11 | Cn1c(=O)n(C(=O)NCCc2ccccc2)c2cc(-c3cncnc3)ccc21 [Example 32a, 3-Methyl-2-oxo-N-phenethyl-6-(pyrimidin-5-yl)-2,3-dihydro-1H-benzo[d]imidazole-1-carboxamide] | 0.9 µg/mL (≈ 2.41 µM) | > 1000 nM
12 | Cn1c(=O)n(C(=O)NCCc2ccccc2)c2ccc(-c3cncnc3)cc21 [Example 32b, 3-methyl-2-oxo-N-phenethyl-5-(pyrimidin-5-yl)-2,3-dihydro-1H-benzo[d]imidazole-1-carboxamide] | 0.3 µg/mL (≈ 0.803 µM) | > 1000 nM
13 | COc1nc2c(C3CCN(C)CC3)cccc2n1C(=O)NCCc1ccccc1 [Example 33, 2-Methoxy-4-(1-methylpiperidin-4-yl)-N-phenethyl-1H-benzo[d]imidazole-1-carboxamide] | 27 µg/mL (≈ 68.8 µM) | 200 to 1000 nM
14 | O=C(NCCc1ccccc1)n1c(OC2CC2)nc2ccccc21 [Example 34, 2-Cyclopropoxy-N-phenethyl-1H-benzo[d]imidazole-1-carboxamide] | 0.5 µg/mL (≈ 1.56 µM) | < 200 nM
15 | CC(C)Oc1nc2ccccc2n1C(=O)NCCc1ccccc1 [Example 35, 2-iso-Propoxy-N-phenethyl-1H-benzo[d]imidazole-1-carboxamide] | 0.7 µg/mL (≈ 2.16 µM) | < 200 nM
16 | CCOc1nc2ccccc2n1C(=O)NCCc1ccccc1 [Example 36, 2-Ethoxy-N-phenethyl-1H-benzo[d]imidazole-1-carboxamide] | 8.4 µg/mL (≈ 27.2 µM) | < 200 nM

Row | SMILES | solubility [1] | IC50 (acid ceramidase)
17 | O=C(NCCc1ccccc1)n1c(Oc2ccccc2)nc2ccccc21 [Example 37, N-Phenethyl-2-phenoxy-1H-benzo[d]imidazole-1-carboxamide] | 0.2 µg/mL (≈ 0.56 µM) | < 200 nM
18 | COc1cc2ncn(C(=O)NCCc3ccccc3)c2cc1N1CCOCC1 [Example 38a, 5-Methoxy-6-morpholino-N-phenethyl-1H-benzo[d]imidazole-1-carboxamide] | 20.4 µg/mL (≈ 53.6 µM) | < 200 nM
19 | COc1cc2c(cc1N1CCOCC1)ncn2C(=O)NCCc1ccccc1 [Example 38b, 6-methoxy-5-morpholino-N-phenethyl-1H-benzo[d]imidazole-1-carboxamide] | 18.3 µg/mL (≈ 48.1 µM) | < 200 nM
20 | COc1cc(N2CCOCC2)cc2c1ncn2C(=O)NCCc1ccccc1 [Example 39, 4-Methoxy-6-morpholino-N-phenethyl-1H-benzo[d]imidazole-1-carboxamide] | 16.3 µg/mL (≈ 42.8 µM) | < 200 nM
21 | COc1c(N2CCOCC2)ccc2c1ncn2C(=O)NCCc1ccccc1 [Example 40, 4-Methoxy-5-morpholino-N-phenethyl-1H-benzo[d]imidazole-1-carboxamide] | 10.5 µg/mL (≈ 27.6 µM) | < 200 nM
22 | O=C(NCCN1CCOCC1)n1cnc2ccccc21 [Example 41, N-(2-Morpholinoethyl)-1H-benzo[d]imidazole-1-carboxamide] | 32 µg/mL (≈ 117 µM) | > 1000 nM
23 | O=C(NCCOCc1ccccc1)n1cnc2ccccc21 [Example 42, N-(2-(Benzyloxy)ethyl)-1H-benzo[d]imidazole-1-carboxamide] | 17.7 µg/mL (≈ 59.9 µM) | < 200 nM
24 | O=C(NCCCOc1ccccc1)n1cnc2ccccc21 [Example 43, N-(3-Phenoxypropyl)-1H-benzo[d]imidazole-1-carboxamide] | 3.5 µg/mL (≈ 11.9 µM) | < 200 nM
25 | CN1CCC(c2cccc3c2ncn3C(=O)NCCCc2ccccc2)CC1 [Example 44, 4-(1-Methylpiperidin-4-yl)-N-(3-phenylpropyl)-1H-benzo[d]imidazole-1-carboxamide] | 23.2 µg/mL (≈ 61.6 µM) | < 200 nM
26 | CN1CCC(c2cccc3c2ncn3C(=O)NCCOc2ccccc2)CC1 [Example 45, 4-(1-Methylpiperidin-4-yl)-N-(2-phenoxyethyl)-1H-benzo[d]imidazole-1-carboxamide] | 23.5 µg/mL (≈ 62.1 µM) | < 200 nM
27 | O=C(NCCOc1ccccc1)n1cnc2cc(C(F)(F)F)ccc21 [Example 46a, N-(2-Phenoxyethyl)-5-(trifluoromethyl)-1H-benzo[d]imidazole-1-carboxamide] | 0.4 µg/mL (≈ 1.15 µM) | < 200 nM
28 | O=C(NCCOc1ccccc1)n1cnc2ccc(C(F)(F)F)cc21 [Example 46b, N-(2-phenoxyethyl)-6-(trifluoromethyl)-1H-benzo[d]imidazole-1-carboxamide] | 0.3 µg/mL (≈ 0.859 µM) | < 200 nM
29 | O=C(NCCOc1ccc(F)cc1)n1cnc2ccccc21 [Example 47, N-(2-(4-Fluorophenoxy)ethyl)-1H-benzo[d]imidazole-1-carboxamide] | 4.3 µg/mL (≈ 14.4 µM) | < 200 nM
30 | CC(C)OCCNC(=O)n1cnc2ccccc21 [Example 48, N-(2-iso-Propoxyethyl)-1H-benzo[d]imidazole-1-carboxamide] | 15.4 µg/mL (≈ 62.3 µM) | 200 to 1000 nM
31 | CCCCNC(=O)n1cnc2cc(C(F)(F)F)ccc21 [Example 49a, N-Butyl-5-(trifluoromethyl)-1H-benzo[d]imidazole-1-carboxamide] | 15.6 µg/mL (≈ 54.7 µM) | < 200 nM
